Read-outs that look alike come from different tables or passages of the source.
Assays:
Format in all cases: in vivo
[1] = system: ryegrass, Italian (Italian ryegrass, Lolium multiflorum); assay: Test A postemergence, ryegrass, Italian; conditions: Lolium multiflorum, post-emergence, 240 h, 10 days, read-out: Plant response rating, Ryegrass, Italian; for pest or weed control at 31 g/ha: 31 g ai/ha, postemergence, 0 to 100 scale (0 no effect, 100 complete control); for pest or weed control at 125 g/ha: Postemergence, 125 g ai/ha, 0 to 100 scale
In short: (§1)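 Greenhouse herbicide screen: seeded pots sprayed on soil (preemergence) or seedlings at one- to two-leaf stage, 2 to 10 cm (postemergence). Evaluation 10 days later by eye against controls; 100 means complete control, 0 no effect.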

[2] = system: galium (catchweed bedstraw, Galium aparine); assay: Test A postemergence, galium; conditions: Galium, post-emergence, 240 h, 10 days, read-out: Plant response rating, Galium; for pest or weed control at 31 g/ha: 31 g ai/ha, postemergence, 0 to 100 scale (0 no effect, 100 complete control); for pest or weed control at 125 g/ha: Postemergence, 125 g ai/ha, 0 to 100 scale
In short: as §1

kochia (Bassia scoparia) = assay: Test A postemergence, kochia; conditions: Bassia scoparia, post-emergence, 240 h, 10 days, read-out: Plant response rating, Kochia; for pest or weed control at 31 g/ha: 31 g ai/ha, postemergence, 0 to 100 scale (0 no effect, 100 complete control); for pest or weed control at 125 g/ha: Postemergence, 125 g ai/ha, 0 to 100 scale
In short: as §1

[3] = system: blackgrass (Alopecurus myosuroides); assay: Test A postemergence, blackgrass; conditions: Alopecurus myosuroides, post-emergence, 240 h, 10 days, read-out: Plant response rating, Blackgrass; for pest or weed control at 31 g/ha: 31 g ai/ha; for pest or weed control at 125 g/ha: 125 g ai/ha
In short: as §1

corn (Zea mays) = assay: Test A postemergence, corn; conditions: Zea mays, post-emergence, 240 h, 10 days; for Corn plant response rating (crop injury, 0 = no effect, 100 = complete kill) at 31 g/ha: 31 g ai/ha; for Corn plant response rating (crop injury, 0 = no effect, 100 = complete kill) at 125 g/ha: 125 g ai/ha
In short: as §1

[4] = system: ryegrass, Italian (Italian ryegrass, Lolium multiflorum); assay: Test A preemergence, ryegrass, Italian; conditions: Lolium multiflorum, pre-emergence, 240 h, 0 to 100 scale, 10 days, read-out: Plant response rating, Ryegrass, Italian; for pest or weed control at 31 g/ha: 31 g ai/ha; for pest or weed control at 125 g/ha: 125 g ai/ha
In short: as §1

[5] = system: ragweed (common ragweed, Ambrosia artemisiifolia); assay: Test A postemergence, ragweed; conditions: Ambrosia artemisiifolia, post-emergence, 240 h, 10 days, read-out: Plant response rating, Ragweed; for pest or weed control at 31 g/ha: 31 g ai/ha, postemergence, 0 to 100 scale (0 no effect, 100 complete control); for pest or weed control at 125 g/ha: Postemergence, 125 g ai/ha, 0 to 100 scale
In short: as §1

[6] = system: sedge, umbrella (small-flower umbrella sedge, Cyperus difformis); assay: Test B flooded paddy test, sedge, umbrella; conditions: Cyperus difformis; 250 g ai/ha, Flood; visually evaluated after 10 to 14 days; read-out: Plant response rating, Sedge, Umbrella (0 to 100 scale where 0 is no effect and 100 is complete control)
In short: (§2)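 Flooded paddy format: compound delivered into 3 cm of water over the soil at the 2-leaf stage. Greenhouse hold of 10 to 14 days. Scores run from 0 (no effect) to 100 (complete control), judged by eye relative to controls.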

[7] = system: foxtail, giant (giant foxtail, Setaria faberi); assay: Test A postemergence, foxtail, giant; conditions: Setaria faberi, post-emergence, 240 h, 10 days, read-out: Plant response rating, Foxtail, Giant; for pest or weed control at 31 g/ha: 31 g ai/ha; for pest or weed control at 125 g/ha: 125 g ai/ha
In short: as §1

[8] = system: barnyardgrass (Echinochloa crus-galli); assay: Test B flooded paddy test, barnyardgrass; conditions: Echinochloa crus-galli; 250 g ai/ha, Flood; visually evaluated after 10 to 14 days; read-out: Plant response rating, Barnyardgrass (0 to 100 scale where 0 is no effect and 100 is complete control)
In short: as §2

[9] = system: wheat (Triticum aestivum); assay: Test A postemergence, wheat; conditions: Triticum aestivum, post-emergence, 240 h, 10 days, read-out: Plant response rating, Wheat; for plant injury at 31 g/ha: 31 g ai/ha, postemergence, 0 to 100 scale (0 no effect, 100 complete control); for plant injury at 125 g/ha: Postemergence, 125 g ai/ha, 0 to 100 scale
In short: as §1

[10] = system: ragweed (common ragweed, Ambrosia artemisiifolia); assay: Test A preemergence, ragweed; conditions: Ambrosia artemisiifolia, pre-emergence, 240 h, 0 to 100 scale, 10 days, read-out: Plant response rating, Ragweed; for pest or weed control at 31 g/ha: 31 g ai/ha; for pest or weed control at 125 g/ha: 125 g ai/ha
In short: as §1

rice (Oryza sativa) = assay: Test B flooded paddy test, rice; conditions: Oryza sativa; 250 g ai/ha, Flood; visually evaluated after 10 to 14 days; read-out: Plant response rating, Rice (0 to 100 scale where 0 is no effect and 100 is complete control)
In short: as §2

[11] = system: foxtail, giant (giant foxtail, Setaria faberi); assay: Test A preemergence, foxtail, giant; conditions: Setaria faberi, pre-emergence, 240 h, 0 to 100 scale, 10 days, read-out: Plant response rating, Foxtail, Giant; for pest or weed control at 31 g/ha: 31 g ai/ha; for pest or weed control at 125 g/ha: 125 g ai/ha
In short: as §1

[12] = system: barnyardgrass (Echinochloa crus-galli); assay: Test A preemergence, barnyardgrass; conditions: 10 days
In short: as §1

[13] = system: barnyardgrass (Echinochloa crus-galli); assay: Test A postemergence, barnyardgrass; conditions: 10 days
In short: as §1

[14] = 125 g ai/ha, 0 to 100 scale (0 no effect, 100 complete control)
[15] = Postemergence, 31 g ai/ha, 0 to 100 scale
[16] = Postemergence, 125 g ai/ha, 0 to 100 scale
[17] = postemergence, 0 to 100 scale (0 no effect, 100 complete control)

| Compound | pest or weed control at 31 g/ha [1] | pest or weed control at 125 g/ha [1] | pest or weed control at 31 g/ha [2] | pest or weed control at 125 g/ha [2] | pest or weed control at 31 g/ha (kochia (Bassia scoparia)) | pest or weed control at 125 g/ha (kochia (Bassia scoparia)) | pest or weed control at 125 g/ha ([3]; Postemergence, 0 to 100 scale) | Corn plant response rating (crop injury, 0 = no effect, 100 = complete kill) at 125 g/ha (corn (Zea mays); Postemergence, 0 to 100 scale) | pest or weed control at 31 g/ha [4] | pest or weed control at 125 g/ha [4] | pest or weed control at 31 g/ha [5] | pest or weed control at 125 g/ha [5] | pest or weed control at 250 g/ha [6] | pest or weed control at 125 g/ha ([7]; Postemergence, 0 to 100 scale) | pest or weed control at 250 g/ha [8] | plant injury at 31 g/ha [9] | plant injury at 125 g/ha [9] | pest or weed control at 31 g/ha [10] | pest or weed control at 125 g/ha [10] | plant injury at 250 g/ha (rice (Oryza sativa)) | other results |
| --- | --- | --- | --- | --- | --- | --- | --- | --- | --- | --- | --- | --- | --- | --- | --- | --- | --- | --- | --- | --- | --- |
| CC(=O)OCOc1c(Cl)nn(C)c(=O)c1-c1c(C)ccc2ccc(C)cc12 [Compound 3, 5-[(Acetyloxy)methoxy]-6-chloro-4-(2,7-dimethyl-1-naphthalenyl)-2-methyl-3(2H)-pyridazinone] | 80% | 100% | 100% | 100% | 60% | 80% | 30% | 20% | 20% | 100% | 90% | 100% | 98% | 90% | 98% | 0% | 20% | 90% | 90% | 0% | pest or weed control at 31 g/ha ([3]; Postemergence, 0 to 100 scale): 10%; Corn plant response rating (crop injury, 0 = no effect, 100 = complete kill) at 31 g/ha (corn (Zea mays); Postemergence, 0 to 100 scale): 0%; pest or weed control at 31 g/ha ([7]; Postemergence, 0 to 100 scale): 80%; pest or weed control at 31 g/ha [11]: 10%; pest or weed control at 125 g/ha [11]: 100%; Plant response rating, Barnyardgrass ([12]; 31 g ai/ha, 0 to 100 scale): 60; Plant response rating, Barnyardgrass [12, 14]: 100; Plant response rating, Barnyardgrass [13, 15]: 60; Plant response rating, Barnyardgrass [13, 16]: 90 |
| CC(=O)OCOc1c(Cl)nn(C)c(=O)c1-c1c2ccccc2cc2ccccc12 [Compound 10, 5-[(acetyloxy)methoxy]-4-(9-anthracenyl)-6-chloro-2-methyl-3(2H)-pyridazinone] | 0% | 0% | 90% | 100% | 0% | 10% | 0% | 20% | 0% | 10% | 100% | 100% | 95% | 50% | 15% | 0% | 0% | 40% | 40% | 0% | pest or weed control at 31 g/ha ([3]; Postemergence, 0 to 100 scale): 30%; Corn plant response rating (crop injury, 0 = no effect, 100 = complete kill) at 31 g/ha (corn (Zea mays); Postemergence, 0 to 100 scale): 10%; pest or weed control at 31 g/ha ([7]; Postemergence, 0 to 100 scale): 10%; pest or weed control at 31 g/ha [11]: 0%; pest or weed control at 125 g/ha [11]: 20%; Plant response rating, Barnyardgrass ([12]; 31 g ai/ha, 0 to 100 scale): 0; Plant response rating, Barnyardgrass [12, 14]: 0; Plant response rating, Barnyardgrass [13, 15]: 20; Plant response rating, Barnyardgrass [13, 16]: 10 |
| CC(=O)OCOc1c(C)nn(C)c(=O)c1-c1c2cc(C)ccc2cc2ccc(F)cc12 [Compound 24, 5-[(acetyloxy)methoxy]-4-(2-fluoro-7-methyl-9-anthracenyl)-2,6-dimethyl-3(2H)-pyridazinone] | 90% | 90% | 100% | 100% | 90% | 100% | 20% | 20% | 50% | 80% | 80% | 100% | 80% | 90% | 70% | 0% | 0% | 90% | 90% | 50% | pest or weed control at 31 g/ha [3, 17]: 0%; Corn plant response rating (crop injury, 0 = no effect, 100 = complete kill) at 31 g/ha (corn (Zea mays); [17]): 10%; pest or weed control at 31 g/ha [7, 17]: 90%; pest or weed control at 31 g/ha [11]: 90%; pest or weed control at 125 g/ha [11]: 100%; Plant response rating, Barnyardgrass ([12]; 31 g ai/ha, 0 to 100 scale): 60; Plant response rating, Barnyardgrass [12, 14]: 90; Plant response rating, Barnyardgrass ([13]; 31 g ai/ha, postemergence, 0 to 100 scale (0 no effect, 100 complete control)): 80; Plant response rating, Barnyardgrass [13, 16]: 90 |

Source: patent publication US12692238B2, “Substituted pyridazinone herbicides” (FMC CORPORATION, priority 2020, dated 2026)
